According to patent US8440619B2, “Utilization of hypertension/hypercardia-preventing effect of D-allose” (National University Corporation Kagawa University, priority 2005, dated 2013):

Experiments:
[1] = test system: spontaneously hypertensive rats (SHR); assay: Systolic blood pressure by the tail-cuff method in spontaneously hypertensive rats; type: in vivo, rat; settings: 2 g daily/kg orally, 4 weeks
Excerpt: (§1) Male spontaneously hypertensive rats of age 8 weeks (SHR) and male Wister KYOTO rats (WKY) of the same age were used. SHR was fed with a 0.5% salt diet or a 8% salt diet (Oriental Yeast Co., Ltd.) for 4 weeks (individually referred to as the 0.5% salt diet group and the 8% salt diet group). Additionally, D-allose or D-glucose was orally given to the 0.5% salt diet group and the 8% salt diet group, at 2 g daily/kg body weight (D-allose group or D-glucose group) during the period. WKY was fed with the 0.5% salt diet and used as a normal control group. Systolic blood pressure was measured by the tail-cuff method over time.

[2] = Urine generation, Na and protein excretion in urine in DS rats; type: in vivo, rat
Excerpt: (§2) Salt-sensitive male Dahl rats of age 7 weeks and with the onset of hypertension (DS) and salt-insensitive male Dahl rats of the same age (DR) were used. The DS rats were fed with a 0.5% salt diet or a 4% salt diet (Oriental Yeast Co., Ltd.) for 4 weeks (individually referred to as 0.5% salt diet group and 4% salt diet group). During the period, D-allose or D-glucose was orally given to the 4% salt diet group at 2 g daily/kg body weight (D-allose group or D-glucose group). The DR rats were fed with the 0.5% salt diet group and used as a normal control group. Blood pressure was measured by the tail-cuff method over time, while before salt loading and on the completion of salt loading, urine was collected for one day. On the last day of the observation period, the thoracic aorta was resected. A part thereof was used to quantify the amount of generated active oxygen in the aorta by the lucigenin method, while another part thereof was used to compare the amount of generated active oxygen between the groups by the dihydroxyethidium (DHE) fluorescence method. So as to assay the expression level of the messenger RNA of the NADPH oxidase involved in the increase of tissue oxidative stress (J Hypertens. 2004; 22:2161-2168), further, the renal cortex and the thoracic aorta were partially stored at −80° C.

Nox-4 messenger RNA = assay: Messenger RNA of NADPH oxidase-composing factor Nox4; type: in vivo, rat; settings: DS rats, 4% salt diet, 4 weeks, DR rats = 1.00
Excerpt: as §2, with “C. The levels of the messenger RNAs of p22phox and Nox analogs (Nox-1, gp91phox, Nox-4) as the NADPH oxidase-composing factors were assayed and compared in between thoracic aorta and renal cortex.” for “C.”

p22phox messenger RNA = assay: Messenger RNA of NADPH oxidase-composing factor p22phox; type: in vivo, rat; settings: DS rats, 4% salt diet, 4 weeks, DR rats = 1.00
Excerpt: as §2, with “C. The levels of the messenger RNAs of p22phox and Nox analogs (Nox-1, gp91phox, Nox-4) as the NADPH oxidase-composing factors were assayed and compared in between thoracic aorta and renal cortex.” for “C.”

gp91phox messenger RNA = assay: Messenger RNA of NADPH oxidase-composing factor gp91phox; type: in vivo, rat; settings: DS rats, 4% salt diet, 4 weeks, DR rats = 1.00
Excerpt: as §2, with “C. The levels of the messenger RNAs of p22phox and Nox analogs (Nox-1, gp91phox, Nox-4) as the NADPH oxidase-composing factors were assayed and compared in between thoracic aorta and renal cortex.” for “C.”

[3] = test system: active oxygen in rat thoracic aorta; assay: Generated active oxygen in thoracic aorta, lucigenin method; type: in vivo; settings: DS rats, 4% salt diet, 2 g daily/kg orally, 4 weeks
Excerpt: as §2, with “C. […] Then, the luminescence was counted with a luminescence reader (BLR-301; Aloka).” for “C.”

Nox-1 messenger RNA = assay: Messenger RNA of NADPH oxidase-composing factor Nox1; type: in vivo, rat; settings: DS rats, 4% salt diet, 4 weeks, DR rats = 1.00
Excerpt: as §2, with “C. The levels of the messenger RNAs of p22phox and Nox analogs (Nox-1, gp91phox, Nox-4) as the NADPH oxidase-composing factors were assayed and compared in between thoracic aorta and renal cortex.” for “C.”

[4] = Body weight, organ weight and feed intake in DS rats; type: in vivo, rat; settings: 4% salt diet, 2 g daily/kg orally, after 4-week feeding
Excerpt: as §2

[5] = test system: salt-sensitive Dahl rats with the onset of hypertension (DS); assay: Blood pressure by the tail-cuff method in salt-loaded salt-sensitive Dahl rats; type: in vivo, rat; settings: 4% salt diet, 2 g daily/kg body weight orally, in 4 weeks
Excerpt: as §2

[6] = test system: active oxygen in rat thoracic aorta; assay: Generated active oxygen in thoracic aorta, DHE fluorescence method; type: in vivo; settings: DS rats, 4% salt diet, 2 g daily/kg orally, 4 weeks
Excerpt: as §2, with “[…] A 10-μm ring slice piece was prepared from the embedded aorta with a cryostat,” for “So as”, “observe” for “assay”, “intra-tissue localization of ethidium generated from the specific reaction between active oxygen and DHE, along with the intensity” for “expression level”, “luminescence, with a co-focus microscope (Bio-Rad).” for “messenger RNA of the NADPH oxidase involved in the increase of tissue oxidative stress (J Hypertens. 2004; 22:2161-2168), further, the renal cortex and the thoracic aorta were partially stored at −80° C.”

[7] = Body weight, heart weight and kidney weight in SHR; type: in vivo, rat; settings: 2 g daily/kg orally, 4 weeks
Excerpt: as §1

[8] = 4% salt diet, 2 g daily/kg orally, after 4-week feeding

| Structure (SMILES) | systolic blood pressure ([1]; 0.5% salt diet) | systolic blood pressure ([1]; 8% salt diet) | Protein excretion in urine [2, 8] | Protein excretion in urine ([2]; before salt loading (baseline)) | Nox4 messenger RNA level (Nox-4 messenger RNA; Aorta) | Nox4 messenger RNA level (Nox-4 messenger RNA; Renal cortex) | p22phox messenger RNA level (p22phox messenger RNA; Aorta) | p22phox messenger RNA level (p22phox messenger RNA; Renal cortex) | gp91phox messenger RNA level (gp91phox messenger RNA; Aorta) | gp91phox messenger RNA level (gp91phox messenger RNA; Renal cortex) | active oxygen generation in thoracic aorta (lucigenin method) [3] | Nox1 messenger RNA level (Nox-1 messenger RNA; Aorta) | Nox1 messenger RNA level (Nox-1 messenger RNA; Renal cortex) | Heart weight [4] | Heart/body weight ratio [4] | Kidney weight [4] | Kidney/body weight ratio [4] | diastolic pressure [5] | systolic pressure [5] | signal accumulation in the aorta media nucleus on DHE fluorescence images [6] | also measured |
| --- | --- | --- | --- | --- | --- | --- | --- | --- | --- | --- | --- | --- | --- | --- | --- | --- | --- | --- | --- | --- | --- |
| O=C[C@H](O)[C@H](O)[C@H](O)[C@H](O)CO [D-allose] | 180±5 mmHg | 222±8 mmHg | 31.3 ± 11.8 mg/day | 9.5 ± 1.2 mg/day | 1.36 ± 0.10 | 1.32 ± 0.22 | 0.83 ± 0.21 | 1.18 ± 0.20 | 1.34 ± 0.27 | 0.97 ± 0.15 | suppressed to the level as observed in the 0.5% salt diet group or the DR normal control group | 0.74 ± 0.22 | 0.88 ± 0.11 | 994 ± 28 mg | 2.88 ± 0.07 ×10^−3 | 1389 ± 25 mg | 4.03 ± 0.03 ×10^−3 | 102±4 mmHg | 135±7 mmHg | suppressed | Heart weight ([7]; 0.5% salt diet): 1042 ± 23 mg; Heart/body weight ratio ([7]; 0.5% salt diet): 3.56 ± 0.05 ×10^−3; Kidney weight ([7]; 0.5% salt diet): 1212 ± 34 mg; Kidney/body weight ratio ([7]; 0.5% salt diet): 4.15 ± 0.08 ×10^−3; Heart weight ([7]; 8% salt diet): 1337 ± 50 mg; Heart/body weight ratio ([7]; 8% salt diet): 4.40 ± 0.06 ×10^−3; Kidney weight ([7]; 8% salt diet): 1387 ± 61 mg; Kidney/body weight ratio ([7]; 8% salt diet): 4.57 ± 0.17 ×10^−3 |
| O=C[C@H](O)[C@@H](O)[C@H](O)[C@H](O)CO [D-glucose] | 201±7 mmHg | 255±5 mmHg | 85.3 ± 20.5 mg/day | 13.1 ± 3.2 mg/day | 1.75 ± 0.24 | 1.38 ± 0.16 | 1.14 ± 0.32 | 1.19 ± 0.06 | 1.90 ± 0.19 | 1.20 ± 0.28 | no such suppressive effect was observed | 0.85 ± 0.24 | 1.03 ± 0.24 | 1066 ± 35 mg | 3.00 ± 0.08 ×10^−3 | 1370 ± 36 mg | 3.85 ± 0.07 ×10^−3 | 125±6 mmHg | 162±5 mmHg | never changed | Heart weight ([7]; 0.5% salt diet): 1180 ± 35 mg; Heart/body weight ratio ([7]; 0.5% salt diet): 3.92 ± 0.15 ×10^−3; Kidney weight ([7]; 0.5% salt diet): 1206 ± 32 mg; Kidney/body weight ratio ([7]; 0.5% salt diet): 3.02 ± 0.02 ×10^−3; Heart weight ([7]; 8% salt diet): 1437 ± 38 mg; Heart/body weight ratio ([7]; 8% salt diet): 4.70 ± 0.13 ×10^−3; Kidney weight ([7]; 8% salt diet): 1342 ± 41 mg; Kidney/body weight ratio ([7]; 8% salt diet): 4.40 ± 0.19 ×10^−3 |
